Experimental data: patent publication US9113629B2, “4-amino-6-(4-substituted-phenyl)-picolinates and 6-amino-2-(4-substituted-phenyl)-pyrimidine-4-carboxylates and their use as herbicides” (DOW AGROSCIENCES LLC, priority 2013, dated 2015)
Read-outs that look alike come from different tables or passages of the source.

How the values were obtained:
[1] = test system: Key Grass and Sedge Weeds as well as Grass Crops; test: Post-emergent Test II herbicidal activity (Table 6); format: in vivo; settings: post-emergence, 336 h; for pest or weed control at 70 g/ha: 70 g ai/ha; for pest or weed control at 140 g/ha: 140 g ai/ha
Outline: (§1)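 Plants grown in Metro-Mix 360 (pH 6.0–6.8) in a greenhouse (~15 h photoperiod, 23–29 °C day) to first or second true leaf stage, then sprayed with compound in acetone/DMSO/aqueous crop-oil-surfactant carrier at 187 L/ha by track sprayer. Injury visually scored 0–100% versus untreated plants after 14 d.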

[2] = test system: Key Broadleaf Weed and Crop Species; test: Post-emergent Test II herbicidal activity (Table 5); format: in vivo; settings: post-emergence, 336 h, 14 days after application; for pest or weed control at 70 g/ha: application rate 70 g ai/ha; for pest or weed control at 140 g/ha: application rate 140 g ai/ha
Outline: as §1

[3] = CYPES: yellow nutsedge (Cyperus esculentus), read-out: Visual Growth Reduction (%) 14 Days After Application, CYPES
[4] = DIGSA: crabgrass (Digitaria sanguinalis), read-out: Visual Growth Reduction (%) 14 Days After Application, DIGSA
[5] = ECHCG: barnyardgrass (Echinochloa crus-galli), read-out: Visual Growth Reduction (%) 14 Days After Application, ECHCG
[6] = ORYSA: rice (Oryza sativa), crop, read-out: Visual Growth Reduction (%) 14 Days After Application, ORYSA
[7] = SETFA: giant foxtail (Setaria faberi), read-out: Visual Growth Reduction (%) 14 Days After Application, SETFA
[8] = SORVU: grain sorghum (Sorghum vulgare), read-out: Visual Growth Reduction (%) 14 Days After Application, SORVU
[9] = TRZSS (wheat, Triticum aestivum), crop, read-out: Visual Growth Reduction (%) 14 Days After Application, TRZSS
[10] = ZEAMX: maize, corn (Zea mays), crop, read-out: Visual Growth Reduction (%) 14 Days After Application, ZEAMX
[11] = ABUTH: velvetleaf (Abutilon theophrasti), read-out: Visual Growth Reduction (%) 14 Days After Application, ABUTH
[12] = AMARE: redroot pigweed (Amaranthus retroflexus), read-out: Visual Growth Reduction (%) 14 Days After Application, AMARE
[13] = BRSNN: oilseed-rape, canola (Brassica napus), read-out: Visual Growth Reduction (%) 14 Days After Application, BRSNN
[14] = CHEAL: lambsquarters (Chenopodium album), read-out: Visual Growth Reduction (%) 14 Days After Application, CHEAL
[15] = EPHHL: wild poinsettia (Euphorbia heterophylla), read-out: Visual Growth Reduction (%) 14 Days After Application, EPHHL
[16] = HELAN: sunflower (Helianthus annuus), read-out: Visual Growth Reduction (%) 14 Days After Application, HELAN
[17] = VIOTR: wild pansy (Viola tricolor), read-out: Visual Growth Reduction (%) 14 Days After Application, VIOTR

Row | melting point | Structure (SMILES) | pest or weed control at 70 g/ha [1, 3] | pest or weed control at 140 g/ha [1, 3] | pest or weed control at 70 g/ha [1, 4] | pest or weed control at 140 g/ha [1, 4] | pest or weed control at 70 g/ha [1, 5] | pest or weed control at 140 g/ha [1, 5] | pest or weed control at 70 g/ha [1, 6] | pest or weed control at 140 g/ha [1, 6] | pest or weed control at 140 g/ha [1, 7] | pest or weed control at 70 g/ha [1, 8] | pest or weed control at 140 g/ha [1, 8] | pest or weed control at 70 g/ha [1, 9] | pest or weed control at 140 g/ha [1, 9] | pest or weed control at 70 g/ha [1, 10] | pest or weed control at 140 g/ha [1, 10] | pest or weed control at 70 g/ha [2, 11] | pest or weed control at 140 g/ha [2, 11] | pest or weed control at 70 g/ha [2, 12] | pest or weed control at 140 g/ha [2, 12] | further results
1 | 171 to 172 °C | COC(=O)c1nc(-c2ccc(Br)c(F)c2F)nc(N)c1OC [Compound 122, methyl 6-amino-2-(4-bromo-2,3-difluorophenyl)-5-methoxypyrimidine-4-carboxylate] | 95 to 100% | 95 to 100% | 45 to 59% | 45 to 59% | 85 to 94% | 95 to 100% | 0 to 29% | 0 to 29% | 95 to 100% | 95 to 100% | 85 to 94% | 45 to 59% | 45 to 59% | 95 to 100% | 95 to 100% | 95 to 100% | 95 to 100% | 95 to 100% | 95 to 100% | pest or weed control at 70 g/ha [2, 13]: 95 to 100%; pest or weed control at 140 g/ha [2, 13]: 95 to 100%; pest or weed control at 70 g/ha [2, 14]: 95 to 100%; pest or weed control at 140 g/ha [2, 14]: 95 to 100%; pest or weed control at 70 g/ha [2, 15]: 95 to 100%; pest or weed control at 140 g/ha [2, 15]: 95 to 100%; pest or weed control at 70 g/ha [2, 16]: 85 to 94%; pest or weed control at 140 g/ha [2, 16]: 95 to 100%; pest or weed control at 70 g/ha [2, 17]: 95 to 100%; pest or weed control at 140 g/ha [2, 17]: 85 to 94%
2 | 203 to 205 °C | C#Cc1ccc(-c2nc(N)c(OC)c(C(=O)OC)n2)c(F)c1 [Compound 59] | 0 to 29% | 0 to 29% | 0 to 29% | 0 to 29% | 0 to 29% | 0 to 29% | 0 to 29% | 0 to 29% | 0 to 29% | 0 to 29% | 0 to 29% | 0 to 29% | 0 to 29% | 0 to 29% | 0 to 29% | 0 to 29% | 0 to 29% | 0 to 29% | 0 to 29% | pest or weed control at 70 g/ha [1, 7]: 0 to 29%; pest or weed control at 70 g/ha [2, 13]: 30 to 44%; pest or weed control at 140 g/ha [2, 13]: 45 to 59%; pest or weed control at 70 g/ha [2, 14]: 0 to 29%; pest or weed control at 140 g/ha [2, 14]: 60 to 74%; pest or weed control at 70 g/ha [2, 15]: 0 to 29%; pest or weed control at 140 g/ha [2, 15]: 0 to 29%; pest or weed control at 70 g/ha [2, 16]: 60 to 74%; pest or weed control at 140 g/ha [2, 16]: 60 to 74%; pest or weed control at 70 g/ha [2, 17]: 0 to 29%; pest or weed control at 140 g/ha [2, 17]: 0 to 29%
